# Test results from US6814953B2, “Bronchodilating compositions and methods” (Dey L.P., priority 2001, dated 2004).
# Columns and labels:
# [1] = Decomposition kinetics of formoterol in aqueous solution (stability testing by HPLC at accelerated temperatures); type: physicochemical
# From the text: In the embodiments herein, the compositions have a pH of about 2.0 to about 8.0. In other embodiments, the compositions have a pH of about 4.0 to about 6.0, or about 4.5 to about 5.5. In certain of the above embodiments, the compositions are formulated at a pH of about 4, 4.4 or 4.6 up to about 5.5, 5.7 or 6. In other embodiments, the pH is about 5.0.
# In other of the above embodiments, the compositions further contain a buffer, including, but not limited to, citric acid/phosphate, acetate, barbital, borate, Britton-Robinson, cacodylate, citrate, collidine, formate, maleate, Mcllvaine, phosphate, Prideaux-Ward, succinate, citrate-phosphate-borate (Teorell-Stanhagen), veronal acetate, MES (2-(N-morpholino)ethanesulfonic acid), BIS-TRIS (bis(2-hydroxyethyl)iminotris(hydroxymethyl)methane), ADA (N-(2-acetamido)-2-iminodiacetic acid), ACES (N-(carbamoylmethyl)-2-aminoethanesulfonic acid), PIPES (piperazirie-N,N′-bis(2-ethanesulfonic acid)), MOPSO (3-(N-morpholino)-2-hydroxypropanesulfonic acid), BIS-TRIS PROPANE (1,3-bis(tris(hydroxymethyl)methylamino)propane), BES (N,N-bis(2-hydroxyethyl)-2-aminoethanesulfonic acid), MOPS (3-(N-morpholino)propanesulfonic acid), TES (N-tris(hydroxymethyl)methyl-2-aminoethanesulfonic acid), HEPES (N-(2-hydroxyethyl)piperazine-N′-(2-ethanesulfonic acid), DIPSO (3-(N,N-bis(2-hydroxyethyl)amino)-2-hydroxypropanesulfonic acid), MOBS (4-(N-morpholino)butanesulfonic acid), TAPSO (3-(N-tris(hydroxymethyl)methylamino)-2-hydroxypropanesulfonic acid), TRIZMAO (tris(hydroxymethylaminomethane), HEPPSO (N-(2-hydroxyethyl)piperazine-N′-(2-hydroxypropanesulfonic acid), POPSO (piperazine-N,N′-bis(2-hydroxypropanesulfonic acid)), TEA (triethanolamine), EPPS (N-(2-hydroxyethyl)piperazine-N′-(3-propanesulfonic acid), TRICINE (N-tris(hydroxymethyl)methylglycine), GLY-GLY (glycylglycine), BICINE (N;N-bis(2-hydroxyethyl)glycine), HEPBS (N-(2-hydroxyethyl)piperazine-N′-(4-butanesulfonic acid)), TAPS (N-tris(hydroxymethyl)methyl-3-aminopropanesulfonic acid), AMPD (2-amino-2-methyl-1,3-propanediol), and/or any other buffers known to those of skill in the art. In one embodiment, the buffer is citric acid/phosphate buffer, acetate buffer, citrate buffer or phosphate buffer. In another embodiment, the buffer is a citrate buffer (citric acid/sodium citrate). […] Buffer concentrations for use herein include from about 0 or 0.01 mM to about 150 mM, or about 1 mM to about 20 mM. In one embodiment, the buffer concentration is about 5 mM. In another embodiment, the buffer concentration is about 1 mM to about 50 mM, or about 20 mM. […] The particular buffer and buffer concentration of a given composition for long term storage provided herein may be determined empirically using standard stability assays well known to those of skill in the art (see, e.g., the Examples).
# The solutions were stored at 60° C.
# (§1) Stability samples of the solutions prepared in EXAMPLES 1 and 2 were placed in scintillation vials with teflon-lined caps and stored in stability ovens at accelerated temperatures. At selected time points, aliquots of the samples were removed from the scintillation vials.
# [2] = Estimated shelf-life of formoterol in the compositions (Arrhenius kinetics); type: physicochemical; conditions: in the compositions provided herein
# From the text: as §1
# [3] = patients with reversible obstructive respiratory diseases; cited from earlier work
smiles,measurement,setting,value
"COc1ccc(CC(C)NCC(O)c2ccc(O)c(NC=O)c2)cc1 (racemic) [formoterol, 2-hydroxy-5-((1RS)-1-hydroxy-2-(((1RS)-2-(p-methoxyphenyl)-1-methylethyl)amino)ethyl)formanilide]",solubility,physchem; aqueous buffer,~2200 µg/mL
same,solubility,"physchem; pH 3, aqueous buffer",~4800 µg/mL
same,solubility,"physchem; pH 4, aqueous buffer",~3000 µg/mL
same,solubility,physchem; water,~2000 µg/mL
same,pH at which decomposition in aqueous solution is slowest,"[1]; 60° C., buffer concentration 5 mM, ionic strength 0.05",about 5.0
same,rate constant (kobs) for decomposition of an aqueous solution,"[1]; 60° C., pH 3, buffer concentration 5 mM, ionic strength 0.05",approximately 0.62 day^−1
same,rate constant (kobs) for decomposition of an aqueous solution,"[1]; 60° C., pH 4, buffer concentration 5 mM, ionic strength 0.05",~0.11 day⁻¹
same,rate constant (kobs) for decomposition of an aqueous solution,"[1]; 60° C., pH 5, buffer concentration 5 mM, ionic strength 0.05",~0.044 day⁻¹
same,rate constant (kobs) for decomposition of an aqueous solution,"[1]; 60° C., pH 7, buffer concentration 5 mM, ionic strength 0.05",~0.55 day⁻¹
same,effect of increasing buffer concentration from 5 mM to 20 mM on rate constant of decomposition,[1]; low and approximately neutral conditions (pH),increased the rate constant of decomposition significantly
same,effect of increasing buffer concentration from 5 mM to 20 mM on rate constant of decomposition,[1]; pH region of about 4.5 to about 5.5,no noticeable differences in rate constant
same,estimated shelf-life,[2]; 5° C.,about 6.2 years
same,estimated shelf-life,[2]; 25° C.,about 7.5 months
same,duration of bronchodilatory effect,[3],greater than 12 hours
same,onset of bronchodilatory effect,[3],1 to 3 min
